We go through 1 molecule from US20040204341A1, “Nr2b receptor antagonists for the treatment or prevention of migraines” (priority 2001, published 2004).

Consider `O=C(NCC1CCN(C(=O)OCc2ccccc2)CC1)c1ccc(O)cc1` [Example 1, 4-[(4-Hydroxy-benzoylamino)-methyl]-piperidine-1-carboxylic acid benzyl ester], for which the melting point (usually the temperature of the solid-liquid transition) lay within 122 to 123 °C.
